According to patent publication US20190167724A1, “NEUROPROTECTIVE COMPOSITION, PREPARATION PROCESS THEREOF AND MEDICAL USES THEREOF” (priority 2017, published 2019):
Marks after values point to notes of the source that are not given here.

System: 6-OHDA induced Parkinson's Disease-like Zebrafish Larvae Model
Assay: Anti-Parkinson's Disease efficacy test in 6-OHDA zebrafish larvae model
Type: in vivo
Settings: soaking at 1.5 μg/mL, co-treated with 6-OHDA

Compound: CN1Cc2c(N)cccc2C(c2ccccc2)C1 (centres unmarked) [Nomifensine]
- Anti-Parkinson's Disease Efficacy (Motility Increase Rate): 40.9%*
- Total Distance (mm) (Mean ± SE) (30 minutes, n = 10): 2738 ± 165 mm
